Laboratory results from PubChem BioAssay (NCI).
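All cell lines were grown in 96-well plates and treated with compound for 48 hours. TGI denotes the concentration required for complete inhibition of growth.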

What was measured:
Assay in all cases: inhibition of tumour cell growth, NCI panel, 48 h
786-0 renal = system: 786-0 renal
A498 renal = system: A498 renal
A549 NSCLC = system: A549 NSCLC
ACHN renal = system: ACHN renal
BT-549 breast = system: BT-549 breast
CAKI-1 renal = system: CAKI-1 renal
CCRF-CEM leukemia = system: CCRF-CEM leukemia
COLO 205 colon = system: COLO 205 colon
DU-145 prostate = system: DU-145 prostate
EKVX NSCLC = system: EKVX NSCLC
HCC-2998 colon = system: HCC-2998 colon
HCT-116 colon = system: HCT-116 colon
HCT-15 colon = system: HCT-15 colon
HL-60(TB) leukemia = system: HL-60(TB) leukemia
HOP-62 NSCLC = system: HOP-62 NSCLC
HOP-92 NSCLC = system: HOP-92 NSCLC
HS 578T breast = system: HS 578T breast
HT29 colon = system: HT29 colon
IGROV1 ovarian = system: IGROV1 ovarian
K-562 leukemia = system: K-562 leukemia
KM12 colon = system: KM12 colon
LOX IMVI melanoma = system: LOX IMVI melanoma
M14 melanoma = system: M14 melanoma
MCF7 breast = system: MCF7 breast
MDA-MB-231 breast = system: MDA-MB-231 breast
MDA-MB-435 = system: MDA-MB-435
MDA-N = system: MDA-N
MOLT-4 leukemia = system: MOLT-4 leukemia
NCI-H226 lung = system: NCI-H226 lung
NCI-H23 lung = system: NCI-H23 lung
NCI-H522 lung = system: NCI-H522 lung
NCI/ADR-RES ovarian = system: NCI/ADR-RES ovarian
OVCAR-3 ovarian = system: OVCAR-3 ovarian
OVCAR-4 ovarian = system: OVCAR-4 ovarian
OVCAR-5 ovarian = system: OVCAR-5 ovarian
OVCAR-8 ovarian = system: OVCAR-8 ovarian
PC-3 prostate = system: PC-3 prostate
RPMI-8226 leukemia = system: RPMI-8226 leukemia
SF-268 CNS = system: SF-268 CNS
SF-295 CNS = system: SF-295 CNS
SF-539 CNS = system: SF-539 CNS
SK-MEL-2 melanoma = system: SK-MEL-2 melanoma
SK-MEL-28 melanoma = system: SK-MEL-28 melanoma
SK-MEL-5 melanoma = system: SK-MEL-5 melanoma
SK-OV-3 ovarian = system: SK-OV-3 ovarian
SN12C renal = system: SN12C renal
SNB-19 CNS = system: SNB-19 CNS
SR leukemia = system: SR leukemia
SW-620 colon = system: SW-620 colon
T-47D breast = system: T-47D breast
TK-10 renal = system: TK-10 renal
U251 CNS = system: U251 CNS
UACC-257 melanoma = system: UACC-257 melanoma
UACC-62 melanoma = system: UACC-62 melanoma
UO-31 renal = system: UO-31 renal
MALME-3M melanoma = system: MALME-3M melanoma
NCI-H460 lung = system: NCI-H460 lung
RXF 393 renal = system: RXF 393 renal
SNB-75 CNS = system: SNB-75 CNS

Question: Which TGI (786-0 renal) does the source give for `CC(C)(C)N(Cc1ccoc1)C(=O)/C=C\S(=O)c1ccccc1` (stereo not given) here?
Answer: 67 µM

Question: What about the TGI (A498 renal) of the same compound?
Answer: 68.1 µM

Question: And the TGI (A549 NSCLC)?
Answer: > 100 µM

Question: And the TGI (ACHN renal)?
Answer: 86.5 µM

Question: And the TGI (BT-549 breast)?
Answer: 30.3 µM

Question: And the TGI (CAKI-1 renal)?
Answer: 27.6 µM

Question: What about the TGI (CCRF-CEM leukemia) of the same compound?
Answer: > 100 µM

Question: What about the TGI (COLO 205 colon) of the same compound?
Answer: 43.9 µM

Question: What about the TGI (DU-145 prostate) of the same compound?
Answer: 25.7 µM

Question: And the TGI (EKVX NSCLC)?
Answer: 75.5 µM

Question: And the TGI (HCC-2998 colon)?
Answer: 34.3 µM

Question: What about the TGI (HCT-116 colon) of the same compound?
Answer: 34.1 µM

Question: And the TGI (HCT-15 colon)?
Answer: 51.4 µM

Question: What about the TGI (HL-60(TB) leukemia) of the same compound?
Answer: 47.5 µM

Question: What about the TGI (HOP-62 NSCLC) of the same compound?
Answer: 36.6 µM

Question: What about the TGI (HOP-92 NSCLC) of the same compound?
Answer: 34.4 µM

Question: What about the TGI (HS 578T breast) of the same compound?
Answer: 68 µM

Question: And the TGI (HT29 colon)?
Answer: 97.7 µM

Question: And the TGI (IGROV1 ovarian)?
Answer: 32.9 µM

Question: And the TGI (K-562 leukemia)?
Answer: > 100 µM

Question: And the TGI (KM12 colon)?
Answer: 34.5 µM

Question: And the TGI (LOX IMVI melanoma)?
Answer: 21.8 µM

Question: And the TGI (M14 melanoma)?
Answer: 40 µM

Question: What about the TGI (MCF7 breast) of the same compound?
Answer: 36.7 µM

Question: And the TGI (MDA-MB-231 breast)?
Answer: 42.3 µM

Question: What about the TGI (MDA-MB-435) of the same compound?
Answer: 20.7 µM

Question: What about the TGI (MDA-N) of the same compound?
Answer: 44.2 µM

Question: What about the TGI (MOLT-4 leukemia) of the same compound?
Answer: > 100 µM

Question: What about the TGI (NCI-H226 lung) of the same compound?
Answer: 48.6 µM

Question: And the TGI (NCI-H23 lung)?
Answer: 32.3 µM

Question: What about the TGI (NCI-H522 lung) of the same compound?
Answer: 40.5 µM

Question: What about the TGI (NCI/ADR-RES ovarian) of the same compound?
Answer: 56.2 µM

Question: What about the TGI (OVCAR-3 ovarian) of the same compound?
Answer: 26.2 µM

Question: And the TGI (OVCAR-4 ovarian)?
Answer: > 100 µM

Question: And the TGI (OVCAR-5 ovarian)?
Answer: 59.2 µM

Question: And the TGI (OVCAR-8 ovarian)?
Answer: 32.1 µM

Question: And the TGI (PC-3 prostate)?
Answer: 27.8 µM

Question: And the TGI (RPMI-8226 leukemia)?
Answer: 89.6 µM

Question: And the TGI (SF-268 CNS)?
Answer: > 100 µM

Question: What about the TGI (SF-295 CNS) of the same compound?
Answer: > 100 µM

Question: What about the TGI (SF-539 CNS) of the same compound?
Answer: 42.9 µM

Question: And the TGI (SK-MEL-2 melanoma)?
Answer: 39.6 µM

Question: What about the TGI (SK-MEL-28 melanoma) of the same compound?
Answer: 44.4 µM

Question: And the TGI (SK-MEL-5 melanoma)?
Answer: 27.4 µM

Question: What about the TGI (SK-OV-3 ovarian) of the same compound?
Answer: 77.6 µM

Question: What about the TGI (SN12C renal) of the same compound?
Answer: 58.5 µM

Question: What about the TGI (SNB-19 CNS) of the same compound?
Answer: 88.8 µM

Question: And the TGI (SR leukemia)?
Answer: 77.8 µM

Question: What about the TGI (SW-620 colon) of the same compound?
Answer: 32 µM

Question: What about the TGI (T-47D breast) of the same compound?
Answer: 38.2 µM

Question: And the TGI (TK-10 renal)?
Answer: > 100 µM

Question: What about the TGI (U251 CNS) of the same compound?
Answer: 29.9 µM

Question: What about the TGI (UACC-257 melanoma) of the same compound?
Answer: 46.1 µM

Question: And the TGI (UACC-62 melanoma)?
Answer: 39.3 µM

Question: What about the TGI (UO-31 renal) of the same compound?
Answer: 27.6 µM

Question: With `CC(=O)OC[C@@H](OC(C)=O)[C@@H](OC(C)=O)[C@H]1OC[C@@H]2C[C@H]([C@H]1OC(C)=O)N(Cc1ccccc1)O2` as the compound, how does the TGI (786-0 renal) read?
Answer: > 100 µM

Question: What about the TGI (A549 NSCLC) of the same compound?
Answer: > 100 µM

Question: And the TGI (ACHN renal)?
Answer: > 100 µM

Question: What about the TGI (BT-549 breast) of the same compound?
Answer: > 100 µM

Question: What about the TGI (CAKI-1 renal) of the same compound?
Answer: > 100 µM

Question: And the TGI (CCRF-CEM leukemia)?
Answer: > 100 µM

Question: And the TGI (COLO 205 colon)?
Answer: > 100 µM

Question: What about the TGI (DU-145 prostate) of the same compound?
Answer: > 100 µM

Question: And the TGI (EKVX NSCLC)?
Answer: > 100 µM

Question: And the TGI (HCC-2998 colon)?
Answer: > 100 µM

Question: What about the TGI (HCT-116 colon) of the same compound?
Answer: > 100 µM

Question: What about the TGI (HL-60(TB) leukemia) of the same compound?
Answer: > 100 µM

Question: What about the TGI (HOP-62 NSCLC) of the same compound?
Answer: > 100 µM

Question: And the TGI (HOP-92 NSCLC)?
Answer: > 100 µM

Question: What about the TGI (HS 578T breast) of the same compound?
Answer: > 100 µM

Question: What about the TGI (HT29 colon) of the same compound?
Answer: > 100 µM

Question: What about the TGI (IGROV1 ovarian) of the same compound?
Answer: > 100 µM

Question: What about the TGI (K-562 leukemia) of the same compound?
Answer: > 100 µM

Question: What about the TGI (KM12 colon) of the same compound?
Answer: > 100 µM

Question: What about the TGI (LOX IMVI melanoma) of the same compound?
Answer: > 100 µM

Question: And the TGI (M14 melanoma)?
Answer: > 100 µM

Question: And the TGI (MALME-3M melanoma)?
Answer: > 100 µM

Question: And the TGI (MCF7 breast)?
Answer: > 100 µM

Question: What about the TGI (MDA-MB-231 breast) of the same compound?
Answer: > 100 µM

Question: What about the TGI (MDA-MB-435) of the same compound?
Answer: > 100 µM

Question: And the TGI (MDA-N)?
Answer: > 100 µM

Question: What about the TGI (MOLT-4 leukemia) of the same compound?
Answer: > 100 µM

Question: And the TGI (NCI-H226 lung)?
Answer: > 100 µM

Question: What about the TGI (NCI-H23 lung) of the same compound?
Answer: > 100 µM

Question: What about the TGI (NCI-H460 lung) of the same compound?
Answer: > 100 µM

Question: What about the TGI (NCI/ADR-RES ovarian) of the same compound?
Answer: > 100 µM

Question: And the TGI (OVCAR-3 ovarian)?
Answer: > 100 µM

Question: And the TGI (OVCAR-4 ovarian)?
Answer: > 100 µM

Question: What about the TGI (OVCAR-5 ovarian) of the same compound?
Answer: > 100 µM

Question: What about the TGI (PC-3 prostate) of the same compound?
Answer: > 100 µM

Question: And the TGI (RPMI-8226 leukemia)?
Answer: > 100 µM

Question: And the TGI (RXF 393 renal)?
Answer: > 100 µM

Question: What about the TGI (SF-268 CNS) of the same compound?
Answer: > 100 µM

Question: And the TGI (SF-295 CNS)?
Answer: > 100 µM

Question: What about the TGI (SF-539 CNS) of the same compound?
Answer: > 100 µM

Question: What about the TGI (SK-MEL-2 melanoma) of the same compound?
Answer: > 100 µM

Question: What about the TGI (SK-MEL-28 melanoma) of the same compound?
Answer: > 100 µM

Question: What about the TGI (SK-MEL-5 melanoma) of the same compound?
Answer: > 100 µM

Question: And the TGI (SK-OV-3 ovarian)?
Answer: > 100 µM

Question: And the TGI (SN12C renal)?
Answer: > 100 µM

Question: What about the TGI (SNB-19 CNS) of the same compound?
Answer: > 100 µM

Question: What about the TGI (SNB-75 CNS) of the same compound?
Answer: > 100 µM

Question: And the TGI (SR leukemia)?
Answer: > 100 µM

Question: What about the TGI (SW-620 colon) of the same compound?
Answer: > 100 µM

Question: What about the TGI (T-47D breast) of the same compound?
Answer: > 100 µM

Question: And the TGI (TK-10 renal)?
Answer: > 100 µM

Question: And the TGI (U251 CNS)?
Answer: > 100 µM

Question: And the TGI (UACC-257 melanoma)?
Answer: > 100 µM

Question: What about the TGI (UACC-62 melanoma) of the same compound?
Answer: > 100 µM

Question: And the TGI (UO-31 renal)?
Answer: > 100 µM
